Values of other authors, collected in patent US20050003028A1, “Composition for protection and regeneration of structure and function of the liver” (priority 2001, published 2005).

Settings: in vivo

Substance: Sylimarin
- re-absorbtion into digestive system: weak
